Source: patent US20250333418A1, “PURINE COMPOUNDS, COMPOSITIONS COMPRISING THEM AND USES THEREOF” (Novo Nordisk A/S, priority 2022, published 2025)
pIC50: −log10 of the molar value.

Assays:
[1] = target: T1, human CB1 receptor (Homo sapiens, UniProt P21554); experiment: bioSensAll β-arrestin2 plasma membrane translocation (+GRK2) BRET biosensor assay in HEK293 cells transfected with hCB1; test compound added before EC75-80 of agonist CP55,940 (100 nM); type: cell-based; details: βArrestin2 (+GRK2) BRET biosensor, vs CP55,940 100 nM (EC75-80), read-out: CB1 wt βarr2 IC50
T1 construct: expressed in transfected cells; host or cells: HEK293
Protocol: (§1) Using polyethylenimine (PEI) transfection agent, HEK293 cells were transfected in suspension with the human CB1 receptor and one of the following bioSensAll® assays: GAPL-Gi2, or β-arrestin plasma membrane (PM) translocation biosensor (+GRK2). Cells were directly seeded in 96-well plates immediately following transfection.
(§2) Cells were incubated with coelenterazine (luciferase substrate) and different test compounds prior to the measurement of BRET signals.
(§3) Used in this project are i) Gα plasma membrane (GAPL) biosensors and the ii) β-arrestin plasma membrane translocation biosensor.
ii) The multimolecular β-arrestin membrane recruitment biosensors allow for real-time spatio-temporal monitoring of β-arrestin 1 and β-arrestin 2 following GPCR activation. Specifically, these β-arrestin sensors were designed to detect the recruitment of proteins to the plasma membrane (β-arrestin PM) with localization to compartment resulting in an increased BRET signal.
(§4) HEK293 cells were maintained in Dulbecco's Modified Eagle Medium (DMEM) (Wisent; cat #319-030-CL: without sodium pyruvate, with 4.5 g/L glucose, without L-glutamine) supplemented with 1% penicillin-streptomycin (Wisent; cat #450-201-EL) and 2 or 10% fetal bovine serum (Wisent cat #090150).
(§5) HEK293 cells were co-transfected with hCB1 and one of the above-listed bioSensAll® assays. For each transfection condition: • the total amount of transfected DNA was kept constant at 1 μg per mL of cell culture to be transfected; whenever necessary, salmon sperm DNA (Invitrogen, cat #15632011) was used as ‘carrier’ DNA to supplement plasmid DNA (i.e., biosensor and receptor); • the PEI (polyethylenimine 25 kDa linear, PolyScience, cat #23966) to DNA ratio (ug:ug) was fixed at 3:1.
(§6) Transfections were carried out as follows: • DNA and PEI were first diluted separately in 150 mM NaCl. The volume of the diluent in each tube corresponds to 5% of the cell culture volume to be transfected. • Once DNA and PEI were diluted, the PEI-containing solution was added to the DNA solution and the DNA/PEI mixture immediately vortexed for 5 seconds. • The DNA/PEI mixture was incubated for at least 20 minutes at room temperature to allow for the formation of DNA/PEI complexes. • During the incubation, HEK293 cells were detached, counted and re-suspended in culture medium (composition specified above). • At the end of the incubation period, the DNA/PEI mixture was added to the cells. • Cells were finally distributed in 96-well plates (White Opaque 96-well/Microplates, Greiner, cat #655083 or CulturPlate-96, White Opaque 96-well Microplate, PerkinElmer, cat #6005688) at a density of 30,000 cells per well.
(§7) At 48 hours post-transfection: • Using 450-Select TS Biotek plate washer, culture medium was aspirated and replaced with 100 μL of Hank's Balanced Salt Solution buffer (HBSS) (Wisent, cat #319-067CL: without red phenol; with sodium bicarbonate, with calcium and magnesium, with HEPES) per well. • Plates were then incubated (equilibrated) at 37° C., 5% CO2 for 60 minutes. • Increasing doses of test compounds were then added to each well using the HP D300e digital dispenser (Tecan). All compounds were assayed at the following 12 concentrations (in nM) with each biosensor: 0.000, 0.013, 0.040, 0.120, 0.320, 0.960, 2.80, 8.00, 24.0, 70.0, 205 and 600. • Three to 5 minutes later, an assay-specific effective concentration (EC)75-80 of agonist CP55,940 (i.e., 0.1 nM and 100 nM for G[…]i2-GAPL or […]Arrestin2 (+GRK2) assay, respectively) was added to wells previously injected with test compound (i.e., previous step 3). […]

[2] = target: T1, human CB1 receptor; experiment: bioSensAll GAPL-Gi2 BRET biosensor assay in HEK293 cells transfected with hCB1; test compound added before EC75-80 of agonist CP55,940 (0.1 nM); type: cell-based; details: vs CP55,940 0.1 nM (EC75-80), read-out: CB1 wt Gi2 IC50
Protocol: as §1, §2, §3
i) GAPL sensors are used to monitor the activation of heterotrimeric G proteins at the plasma membrane upon receptor stimulation. Specifically, these multimolecular BRET sensors detect the plasma membrane recruitment of proteins that interact with active Gα subunits in a G protein family-selective manner. G protein activation following receptor stimulation generally leads to an increase in the BRET signal.
as §4, §5, §6, §7

T1 sequence (P21554 whole entry): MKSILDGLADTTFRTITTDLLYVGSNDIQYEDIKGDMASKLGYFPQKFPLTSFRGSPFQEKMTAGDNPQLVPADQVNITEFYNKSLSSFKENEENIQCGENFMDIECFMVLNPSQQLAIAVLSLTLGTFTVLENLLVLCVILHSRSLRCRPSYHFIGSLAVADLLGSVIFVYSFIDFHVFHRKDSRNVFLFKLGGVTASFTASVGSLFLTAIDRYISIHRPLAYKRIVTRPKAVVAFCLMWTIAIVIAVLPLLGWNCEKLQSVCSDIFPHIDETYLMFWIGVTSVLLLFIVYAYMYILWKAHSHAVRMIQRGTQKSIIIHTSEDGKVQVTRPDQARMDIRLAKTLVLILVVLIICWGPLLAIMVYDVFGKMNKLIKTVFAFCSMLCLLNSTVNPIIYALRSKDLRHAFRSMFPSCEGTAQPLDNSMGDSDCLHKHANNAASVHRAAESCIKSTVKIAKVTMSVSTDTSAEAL

SMILES: COCCN(C)c1nc(N2CCC(C)(C(N)=O)CC2)c2nc(-c3ccccc3Cl)n(-c3ccc(Cl)cc3)c2n1 [Compound 42, 1-[8-(2-chlorophenyl)-9-(4-chlorophenyl)-2-[2-methoxyethyl(methyl)amino]purin-6-yl]-4-methyl-piperidine-4-carboxamide]
- pIC50 [1]: 8.62
- pIC50 [2]: 9.16

SMILES: CC1(C(N)=O)CCN(c2nc(N3CCC[C@@H]3CO)nc3c2nc(-c2ccccc2Cl)n3-c2ccc(Cl)cc2)CC1 [Compound 13, 1-[8-(2-chlorophenyl)-9-(4-chlorophenyl)-2-[(2R)-2-(hydroxymethyl)pyrrolidin-1-yl]purin-6-yl]-4-methyl-piperidine-4-carboxamide]
- pIC50 [1]: < 5.30
- pIC50 [2]: 8.15

SMILES: Cc1cccnc1-c1nc2c(N3CCC(C)(C(N)=O)CC3)nc(N(C)CCO)nc2n1-c1ccc(Cl)cc1 [Compound 51, 1-[9-(4-chlorophenyl)-2-[2-hydroxyethyl(methyl)amino]-8-(3-methyl-2-pyridyl)purin-6-yl]-4-methyl-piperidine-4-carboxamide]
- pIC50 [1]: 7.19
- pIC50 [2]: 8.00

SMILES: CC(C)(C)OC(=O)NCCOc1nc(N2CCC(C)(C(N)=O)CC2)c2nc(-c3ccccc3Cl)n(-c3ccc(Cl)cc3)c2n1 [Compound 60, tert-butyl N-[2-[6-(4-carbamoyl-4-methyl-1-piperidyl)-8-(2-chlorophenyl)-9-(4-chlorophenyl)purin-2-yl]oxyethyl]carbamate]
- pIC50 [1]: 7.71
- pIC50 [2]: 8.16

SMILES: Cc1nc(N2CCC(C)(C(N)=O)CC2)c2nc(-c3ccccc3Cl)n(-c3ccc(Cl)cc3)c2n1 [Compound 127]
- pIC50 [1]: 7.39
- pIC50 [2]: 8.03

SMILES: OC[C@@H]1CCCN1c1nc(N2CCC(C(F)(F)F)CC2)c2nc(-c3ccccc3Cl)n(-c3ccc(Cl)cc3)c2n1 [Compound 162, [(2S)-1-[8-(2-chlorophenyl)-9-(4-chlorophenyl)-6-[4-(trifluoromethyl)-1-piperidyl]purin-2-yl]pyrrolidin-2-yl]methanol]
- pIC50 [1]: 8.74
- pIC50 [2]: 8.89

SMILES: CN(CCO)c1nc(N2CCC(C)(C(N)=O)CC2)c2nc(-c3ncccc3Cl)n(-c3ccc(Cl)cc3)c2n1 [Compound 49, 1-[9-(4-chlorophenyl)-8-(3-chloro-2-pyridyl)-2-[2-hydroxyethyl(methyl)amino]purin-6-yl]-4-methyl-piperidine-4-carboxamide]
- pIC50 [1]: 7.71
- pIC50 [2]: 8.59

SMILES: CCOC1(C(N)=O)CCN(c2nc(N3CCC[C@H]3CO)nc3c2nc(-c2ccccc2Cl)n3-c2ccc(Cl)cc2)CC1 [Compound 177]
- pIC50 [1]: 8.73
- pIC50 [2]: 9.36

SMILES: CC(C)(O)COc1nc(N2C[C@H]3C[C@@H]2CO3)c2nc(-c3ccccc3Cl)n(-c3ccc(Cl)cc3)c2n1 [Compound 203]
- pIC50 [1]: 8.19
- pIC50 [2]: 8.86

SMILES: CC1(C(N)=O)CCN(c2nc(NCCO)nc3c2nc(-c2ccccc2Cl)n3-c2ccc(Cl)cc2)CC1 [Compound 56, 1-[8-(2-chlorophenyl)-9-(4-chlorophenyl)-2-(2-hydroxyethylamino)purin-6-yl]-4-methyl-piperidine-4-carboxamide]
- pIC50 [1]: 8.27
- pIC50 [2]: 9.08

SMILES: CN1C[C@H](Oc2nc(N3CCC(C)(C(N)=O)CC3)c3nc(-c4ccccc4Cl)n(-c4ccc(Cl)cc4)c3n2)C[C@H]1CO [Compound 236]
- pIC50 [1]: 7.64
- pIC50 [2]: 8.54

SMILES: OC[C@@H]1CN(c2nc(N3CCC[C@H]3CO)nc3c2nc(-c2ccccc2Cl)n3-c2ccc(Cl)cc2)CCO1 [Compound 169]
- pIC50 [1]: 8.69
- pIC50 [2]: 9.27

SMILES: CC1(C(N)=O)CCN(c2nc(C(=O)O)nc3c2nc(-c2ccccc2Cl)n3-c2ccc(Cl)cc2)CC1 [Compound 77, 6-(4-carbamoyl-4-methyl-1-piperidyl)-8-(2-chlorophenyl)-9-(4-chlorophenyl)purine-2-carboxylic acid]
- pIC50 [1]: < 5.30
- pIC50 [2]: < 5.30

SMILES: CN(CC1COC1)c1nc(-c2ccc(C(F)(F)F)nc2)c2nc(-c3ccccc3Cl)n(-c3ccc(Cl)cc3)c2n1 [Compound 125]
- pIC50 [1]: 7.79
- pIC50 [2]: 8.30

SMILES: C[C@H](O)CNc1nc(N2CCC(C)(C(N)=O)CC2)c2nc(-c3ccccc3Cl)n(-c3ccc(Cl)cc3)c2n1 [Compound 84, 1-[8-(2-chlorophenyl)-9-(4-chlorophenyl)-2-[[(2S)-2-hydroxypropyl]amino]purin-6-yl]-4-methyl-piperidine-4-carboxamide]
- pIC50 [1]: 7.93
- pIC50 [2]: 8.68

SMILES: CC(C)N1CCN(c2nc(OCC(C)(C)O)nc3c2nc(-c2ccccc2Cl)n3-c2ccc(Cl)cc2)CC1 [Compound 96]
- pIC50 [1]: 8.25
- pIC50 [2]: 8.46

SMILES: CC(C)(O)COc1nc(N2CCC(C)(C(N)=O)CC2)c2nc(-c3ccc(C#N)cc3)n(-c3ccc(Cl)cc3)c2n1 [Compound 106, 1-[9-(4-chlorophenyl)-8-(4-cyanophenyl)-2-(2-hydroxy-2-methyl-propoxy)purin-6-yl]-4-methyl-piperidine-4-carboxamide]
- pIC50 [1]: 7.29
- pIC50 [2]: 7.85

SMILES: FC(F)(F)C1CCN(c2nc(N3C[C@H]4C[C@H]4C3)nc3c2nc(-c2ccccc2Cl)n3-c2ccc(Cl)cc2)CC1 [Compound 31, 2-[(1R,5S)-3-azabicyclo[3.1.0]hexan-3-yl]-8-(2-chlorophenyl)-9-(4-chlorophenyl)-6-[4-(trifluoromethyl)-1-piperidyl]purine]
- pIC50 [1]: 7.66
- pIC50 [2]: 8.56

SMILES: CN(CC(C)(C)O)c1nc(N2CCC(C)(C(N)=O)CC2)c2nc(-c3ccccc3Cl)n(-c3ccc(Cl)cc3)c2n1 [Compound 40, 1-[8-(2-chlorophenyl)-9-(4-chlorophenyl)-2-[(2-hydroxy-2-methyl-propyl)-methyl-amino]purin-6-yl]-4-methyl-piperidine-4-carboxamide]
- pIC50 [1]: 7.82
- pIC50 [2]: 9.01

SMILES: CC(C)Nc1nc(OCC(C)(C)O)nc2c1nc(-c1ccccc1Cl)n2-c1ccc(Cl)cc1 [Compound 87]
- pIC50 [1]: 7.67
- pIC50 [2]: 8.51

SMILES: COC(=O)N1CCN(c2nc(N(C)CCO)nc3c2nc(-c2ccccc2Cl)n3-c2ccc(Cl)cc2)CC1 [Compound 173]
- pIC50 [1]: 8.82
- pIC50 [2]: 9.38

SMILES: C[C@@H]1COCCN1c1nc(OCC(C)(C)O)nc2c1nc(-c1ccccc1Cl)n2-c1ccc(Cl)cc1 [Compound 212]
- pIC50 [1]: 7.59
- pIC50 [2]: 8.60

SMILES: CCOC1(C(N)=O)CCN(c2nc(N3CCC[C@H]3CO)nc3c2nc(-c2ccc(C#N)nc2)n3-c2ccc(Cl)cc2)CC1 [Compound 133, 1-[9-(4-chlorophenyl)-8-(6-cyano-3-pyridyl)-2-[(2S)-2-(hydroxymethyl)pyrrolidin-1-yl]purin-6-yl]-4-ethoxy-piperidine-4-carboxamide]
- pIC50 [1]: 8.74
- pIC50 [2]: 9.17

SMILES: CN(CCO)c1nc(NC2CN(C(=O)C(F)(F)F)C2)c2nc(-c3ccccc3Cl)n(-c3ccc(Cl)cc3)c2n1 [Compound 179]
- pIC50 [1]: 8.72
- pIC50 [2]: 9.61

SMILES: CC1(C(N)=O)CCN(c2nc(N3CCC[C@H]3CO)nc3c2nc(-c2cccc(C#N)c2)n3-c2ccc(Cl)cc2)CC1 [Compound 37, 1-[9-(4-chlorophenyl)-8-(3-cyanophenyl)-2-[(2S)-2-(hydroxymethyl)pyrrolidin-1-yl]purin-6-yl]-4-methyl-piperidine-4-carboxamide]
- pIC50 [1]: 7.22
- pIC50 [2]: 8.13
